Data reported in patent publication US8927717B1, “Thiochromeno[2,3-c]quinolin-12-one derivatives, preparation method and application thereof” (National Defense Medical Center, priority 2014, dated 2015).

Key:
Format in all cases: cell-based
[1] = system: RXF 393; conditions: RXF 393
[2] = system: MALME-3M; conditions: MALME-3M
[3] = system: SF-268; conditions: SF-268
[4] = system: A498; conditions: A498
[5] = system: HCT-15; conditions: HCT-15
[6] = system: MOLT-4; conditions: MOLT-4
[7] = system: 786-0; conditions: 786-0
[8] = system: DU-145; conditions: DU-145
[9] = system: KM12; assay: cells; conditions: KM12
[10] = system: OVCAR-5; conditions: OVCAR-5
[11] = system: SK-MEL-5; conditions: SK-MEL-5
[12] = system: SF-295; conditions: SF-295
[13] = system: OVCAR-8; conditions: OVCAR-8
[14] = system: SK-MEL-28; conditions: SK-MEL-28
[15] = system: LOX IMVI; conditions: LOX IMVI
[16] = system: MDA-MB-486; conditions: MDA-MB-486
[17] = system: NCI/ADR-RES; conditions: NCI/ADR-RES
[18] = system: MDA-MB-231/ATCC; conditions: MDA-MB-231/ATCC
[19] = system: BT-549; conditions: BT-549
[20] = system: SK-OV-3; conditions: SK-OV-3
[21] = system: NCI-H226; conditions: NCI-H226
[22] = system: RPMI-8226; conditions: RPMI-8226
[23] = system: T-47D; conditions: T-47D
[24] = system: SN12C; conditions: SN12C
[25] = system: 60 cancer cell lines; assay: NCI 60-cell screen, SRB, whole panel (mean, delta, range)
[26] = system: A549/ATCC; conditions: A549/ATCC
[27] = system: UO-31; conditions: UO-31
[28] = system: TK-10; conditions: TK-10
[29] = system: HCT-116; conditions: HCT-116
[30] = system: MCF7; conditions: MCF7
[31] = system: SR; conditions: SR
[32] = system: K-562; conditions: K-562
[33] = system: U251; conditions: U251
[34] = system: CCRF-CEM; conditions: CCRF-CEM
[35] = system: MDA-MB-435; conditions: MDA-MB-435
[36] = system: NCI-H522; conditions: NCI-H522
[37] = system: NCI-H23; conditions: NCI-H23
[38] = system: UACC-62; conditions: UACC-62
[39] = system: PC-3; conditions: PC-3
[40] = Homo sapiens, five dose, read-out: LC50 (the source's name)

Compound O=c1c2cc(Cl)ccc2sc2c(NCCCNCCO)nc3ccccc3c12 [Compound N19, 10-Chloro-6-((3-((2-hydroxyethyl)amino)propyl)amino)-12H-thiochromeno[2,3-c]quinolin-12-one] has a GI50 ([1]; Homo sapiens, five dose) of 1640 nM, a Growth percent ([1]; 10^−5 molar) of 43.67% and a TGI ([1]; five dose) of 3200 nM. The GI50 ([2]; Homo sapiens, five dose) was 2150 nM, the Growth percent ([2]; 10^−5 molar) was −34.30% and the TGI ([2]; five dose) was 4330 nM. For the same compound, the GI50 ([3]; Homo sapiens, five dose) was 1670 nM, the Growth percent ([3]; 10^−5 molar) was 17.28% and the TGI ([3]; five dose) was 3350 nM. The Growth percent ([4]; 10^−5 molar) was 61.88%, the TGI ([4]; five dose) was 3620 nM and the GI50 ([4]; Homo sapiens, five dose) was 1270 nM. It also gave a CC50 [4, 40] of 15000 nM, a Growth percent ([5]; 10^−5 molar) of −76.47% and a TGI ([5]; five dose) of 3250 nM. It also gave a GI50 ([5]; Homo sapiens, five dose) of 1610 nM, a GI50 ([6]; Homo sapiens, five dose) of 1880 nM and a Growth percent ([6]; 10^−5 molar) of −47.57%. It also gave a Growth percent ([7]; 10^−5 molar) of −17.60%, a TGI ([7]; five dose) of 3370 nM and a GI50 ([7]; Homo sapiens, five dose) of 1720 nM. For the same compound, the Growth percent ([8]; 10^−5 molar) was −71.03%, the TGI ([8]; five dose) was 3310 nM and the GI50 ([8]; Homo sapiens, five dose) was 1760 nM. It also gave a CC50 [8, 40] of 6250 nM, a GI50 ([9]; Homo sapiens, five dose) of 1670 nM and a Growth percent ([9]; 10^−5 molar) of −83.29%. For the same compound, the TGI ([9]; five dose) was 3310 nM, the GI50 ([10]; Homo sapiens, five dose) was 1630 nM and the CC50 [10, 40] was 7530 nM. The Growth percent ([10]; 10^−5 molar) was −65.05%, the TGI ([10]; five dose) was 3500 nM and the GI50 ([11]; Homo sapiens, five dose) was 1600 nM. For the same compound, the Growth percent ([11]; 10^−5 molar) was 62.02%, the TGI ([11]; five dose) was 3000 nM and the GI50 ([12]; Homo sapiens, five dose) was 1730 nM. It also gave a Growth percent ([12]; 10^−5 molar) of −93.00%, a TGI ([12]; five dose) of 3330 nM and a GI50 ([13]; Homo sapiens, five dose) of 1750 nM. For the same compound, the Growth percent ([13]; 10^−5 molar) was 9.89%, the TGI ([13]; five dose) was 3320 nM and the GI50 ([14]; Homo sapiens, five dose) was 1890 nM. For the same compound, the Growth percent ([14]; 10^−5 molar) was −94.33%, the TGI ([14]; five dose) was 3560 nM and the GI50 ([15]; Homo sapiens, five dose) was 1800 nM. For the same compound, the Growth percent ([15]; 10^−5 molar) was −82.79%, the TGI ([15]; five dose) was 3800 nM and the GI50 ([16]; 60 cell, five dose) was 1060 nM. For the same compound, the CC50 ([16]; 60 cell, five dose, read-out: LC50 (the source's name)) was 6200 nM, the Growth percent ([16]; 10^−5 molar) was −24.00% and the TGI ([16]; five dose) was 2560 nM. For the same compound, the GI50 ([17]; Homo sapiens, five dose) was 1820 nM, the Growth percent ([17]; 10^−5 molar) was 26.35% and the TGI ([17]; five dose) was 3630 nM. The GI50 ([18]; Homo sapiens, five dose) was 1360 nM, the CC50 [18, 40] was 6020 nM and the Growth percent ([18]; 10^−5 molar) was −66.53%. The TGI ([18]; five dose) was 2860 nM, the Growth percent ([19]; 10^−5 molar) was 98.48% and the TGI ([19]; five dose) was 3150 nM. For the same compound, the GI50 ([19]; Homo sapiens, five dose) was 1670 nM, the GI50 ([20]; Homo sapiens, five dose) was 1680 nM and the CC50 [20, 40] was 6800 nM. For the same compound, the Growth percent ([20]; 10^−5 molar) was 76.48%, the TGI ([20]; five dose) was 3380 nM and the GI50 ([21]; Homo sapiens, five dose) was 1900 nM. It also gave a Growth percent ([21]; 10^−5 molar) of 86.75%, a TGI ([21]; five dose) of 4460 nM and a GI50 ([22]; Homo sapiens, five dose) of 1840 nM. It also gave a Growth percent ([22]; 10^−5 molar) of 5.53%, a TGI ([22]; five dose) of 4210 nM and a GI50 ([23]; Homo sapiens, T47D, five dose) of 1500 nM. It also gave a Growth percent ([23]; 10^−5 molar) of 16.26%, a TGI ([23]; five dose) of 3430 nM and a GI50 ([24]; Homo sapiens, five dose) of 1700 nM. For the same compound, the CC50 [24, 40] was 6800 nM, the Growth percent ([24]; 10^−5 molar) was 78.75% and the TGI ([24]; five dose) was 3390 nM. For the same compound, the GI50 ([25]; 60 cell, mean over panel, five dose) was 1660 nM, the CC50 ([25]; 60 cell, mean over panel, five dose, read-out: LC50, Mean) was 9550 nM and the “Growth percent, Delta” value ([25]; delta over panel, 10^−5 molar) was 75.63%. The “Growth percent, Mean” value ([25]; mean over panel, 10^−5 molar) was −21.33%, the “TGI, Mean” value ([25]; mean over panel, five dose) was 3390 nM and the “Growth percent, Range” value ([25]; range over panel, 10^−5 molar) was 195.44%. It also gave a Growth percent ([26]; 10^−5 molar) of −64.45%, a TGI ([26]; five dose) of 3300 nM and a GI50 ([26]; Homo sapiens, five dose) of 1760 nM. The GI50 ([27]; Homo sapiens, five dose) was 1360 nM, the CC50 [27, 40] was 6350 nM and the Growth percent ([27]; 10^−5 molar) was 24.54%. The TGI ([27]; five dose) was 2940 nM, the GI50 ([28]; Homo sapiens, five dose) was 2090 nM and the CC50 [28, 40] was 6690 nM. For the same compound, the Growth percent ([28]; 10^−5 molar) was −92.61%, the TGI ([28]; five dose) was 3740 nM and the Growth percent ([29]; 10^−5 molar) was −91.19%. It also gave a TGI ([29]; five dose) of 3050 nM, a GI50 ([29]; Homo sapiens, five dose) of 1600 nM and a GI50 ([30]; Homo sapiens, five dose) of 1050 nM. For the same compound, the Growth percent ([30]; 10^−5 molar) was −72.49%, the TGI ([30]; five dose) was 2600 nM and the GI50 ([31]; Homo sapiens, five dose) was 1980 nM. It also gave a Growth percent ([31]; 10^−5 molar) of −51.40%, a TGI ([31]; five dose) of 4550 nM and a GI50 ([32]; Homo sapiens, K562, five dose) of 1730 nM. It also gave a CC50 ([32]; Homo sapiens, K562, five dose, read-out: LC50 (the source's name)) greater than 100000 nM, a Growth percent ([32]; 10^−5 molar) of −66.94% and a GI50 ([33]; Homo sapiens, U-251, five dose) of 1730 nM. For the same compound, the Growth percent ([33]; 10^−5 molar) was −66.76%, the TGI ([33]; five dose) was 3220 nM and the Growth percent ([34]; 10^−5 molar) was −54.78%. For the same compound, the TGI ([34]; five dose) was 3800 nM, the GI50 ([34]; Homo sapiens, five dose) was 1830 nM and the GI50 ([35]; Homo sapiens, five dose) was 1590 nM. The CC50 [35, 40] was 5620 nM, the Growth percent ([35]; 10^−5 molar) was −88.95% and the TGI ([35]; five dose) was 2990 nM. It also gave a GI50 ([36]; Homo sapiens, five dose) of 1850 nM, a Growth percent ([36]; 10^−5 molar) of −59.68% and a TGI ([36]; five dose) of 3560 nM. The GI50 ([37]; Homo sapiens, five dose) was 1890 nM, the Growth percent ([37]; 10^−5 molar) was 54.26% and the TGI ([37]; five dose) was 3680 nM. The GI50 ([38]; Homo sapiens, five dose) was 1810 nM, the CC50 [38, 40] was 6390 nM and the Growth percent ([38]; 10^−5 molar) was −77.63%. The TGI ([38]; five dose) was 3400 nM, the GI50 ([39]; Homo sapiens, five dose) was 1510 nM and the CC50 [39, 40] was 5660 nM. For the same compound, the Growth percent ([39]; 10^−5 molar) was −26.98% and the TGI ([39]; five dose) was 2920 nM.
